Test results from the NIST ThermoML archive (doi:10.1021/je401008s).

Experiment: xn = mol fraction of the nth substance listed
Conditions: Liquid, Taylor dispersion method, x1 = 0

O=C=O [carbon dioxide] + O
Conditions | binary diffusion coefficient [m2/s]
298 K, 14000 kPa | 2.23e-09
298 K, 31600 kPa | 2.26e-09
298 K, 47700 kPa | 2.22e-09
323 K, 14200 kPa | 3.64e-09
323 K, 31800 kPa | 3.72e-09
323 K, 48600 kPa | 3.94e-09
348 K, 14900 kPa | 5.39e-09
348 K, 31800 kPa | 5.31e-09
348 K, 49300 kPa | 5.37e-09
373 K, 14900 kPa | 7.42e-09
373 K, 31000 kPa | 7.52e-09
373 K, 48500 kPa | 7.68e-09
398 K, 14300 kPa | 9.95e-09
398 K, 30900 kPa | 1.01e-08
398 K, 48000 kPa | 1.02e-08
423 K, 14300 kPa | 1.23e-08
423 K, 48000 kPa | 1.22e-08

N#N [nitrogen] + O
Conditions | binary diffusion coefficient [m2/s]
298 K, 12000 kPa | 1.99e-09
298 K, 25000 kPa | 2e-09
298 K, 44600 kPa | 1.98e-09
323 K, 14600 kPa | 3.28e-09
323 K, 25100 kPa | 3.47e-09
323 K, 45000 kPa | 3.2e-09
373 K, 14800 kPa | 6.62e-09
373 K, 45000 kPa | 6.42e-09
423 K, 26900 kPa | 1.07e-08
423 K, 45900 kPa | 1.04e-08
